# From patent US11111247B2, “Pyrazolopyrimidine compounds and uses thereof” (Incyte Corporation, priority 2018, dated 2021)
# Read-outs that look alike come from different tables or passages of the source.
# Columns and labels:
# ALK2 (aa 147-end) = ALK2 (aa 147-end) (Homo sapiens (Human), UniProt Q04771); experiment: ALK2 HTRF Assay; type: biochemical
# Procedure: The enzymatic assays were conducted in white 384-well polystyrene plates in a final volume of 8 μL. The inhibitors were serially diluted in DMSO and added to the plate wells prior to addition of the other reaction components. The assays were carried out at 25° C. in the assay buffer (50 mM HEPES, pH 7.1, 10% Glycerol, 0.01% Brij50, 10 mM MgCl2, 1 mM EGTA, 5 mM DTT, and 0.01% BSA), containing 50 nM LANCE Ultra ULight™-DNA Topoisomerase 2-alpha peptide (Perkin Elmer TRF0130), and 3 uM, 100 uM or 1 mM ATP (as specified). […] The reaction was read on a PHERAstar FS plate reader (BMG Labtech). IC50 determination was performed by fitting percent control activity versus the log of the inhibitor concentration using the IDBS XLFit and GraphPad Prism 5.0 software.
# ALK2 = ALK2 (Homo sapiens (Human), UniProt Q04771); experiment: ALK2 Cellular Assay (phospho SMAD1 HTRF, BMP-7 stimulated HeLa cells); type: cell-based; settings: HeLa cells, 200 ng/ml BMP-7, Phospho SMAD1 (S463/S465) HTRF; read-out: ALK2 Cellular Assay PSMAD
# Chain of ALK2 (Q04771 21-509): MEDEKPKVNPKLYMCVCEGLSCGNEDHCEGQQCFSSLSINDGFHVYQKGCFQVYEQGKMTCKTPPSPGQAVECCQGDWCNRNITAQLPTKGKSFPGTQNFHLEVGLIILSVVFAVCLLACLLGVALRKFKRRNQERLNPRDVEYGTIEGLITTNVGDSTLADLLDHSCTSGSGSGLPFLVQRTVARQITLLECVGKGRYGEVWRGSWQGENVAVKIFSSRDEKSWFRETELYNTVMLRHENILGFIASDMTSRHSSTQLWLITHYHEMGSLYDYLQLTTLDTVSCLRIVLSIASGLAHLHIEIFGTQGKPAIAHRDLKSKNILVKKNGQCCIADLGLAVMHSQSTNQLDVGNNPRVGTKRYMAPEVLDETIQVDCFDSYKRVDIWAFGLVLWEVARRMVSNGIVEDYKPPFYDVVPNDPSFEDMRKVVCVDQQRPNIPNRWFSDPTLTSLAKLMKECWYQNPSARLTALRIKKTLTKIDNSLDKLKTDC
# Procedure: HeLa cells were cultured in MEM media with 10% FBS. […] HeLa cells were plated in 96 well flat bottomed plate at 50,000 cells per well and incubated overnight. Next day, media was removed and 50 μL of fresh complete media was added. 5 μL compound was added to cells (3 μM final concentration at highest) and incubated for 60 min at 37° C. 200 ng/ml BMP-7 was added and incubated for 30 min at 37° C. After incubation, the media was removed, washed 2×PBS, and proceeded with HTRF kit according to Cisbio HTRF kit instructions for measuring the Phospho SMAD1 (S463/S465). Finally, both the donor and acceptor were added into 384 well plates and incubated at room temperature overnight and the HTRF signal was measured via Pherastar the next day.
# FGFR3 (UP) = FGFR3 (UP) (Homo sapiens (Human), UniProt P22607); experiment: FGFR Enzymatic Assay, FGFR3 un-phosphorylated
# Chain of FGFR3 (UP) (P22607 23-806): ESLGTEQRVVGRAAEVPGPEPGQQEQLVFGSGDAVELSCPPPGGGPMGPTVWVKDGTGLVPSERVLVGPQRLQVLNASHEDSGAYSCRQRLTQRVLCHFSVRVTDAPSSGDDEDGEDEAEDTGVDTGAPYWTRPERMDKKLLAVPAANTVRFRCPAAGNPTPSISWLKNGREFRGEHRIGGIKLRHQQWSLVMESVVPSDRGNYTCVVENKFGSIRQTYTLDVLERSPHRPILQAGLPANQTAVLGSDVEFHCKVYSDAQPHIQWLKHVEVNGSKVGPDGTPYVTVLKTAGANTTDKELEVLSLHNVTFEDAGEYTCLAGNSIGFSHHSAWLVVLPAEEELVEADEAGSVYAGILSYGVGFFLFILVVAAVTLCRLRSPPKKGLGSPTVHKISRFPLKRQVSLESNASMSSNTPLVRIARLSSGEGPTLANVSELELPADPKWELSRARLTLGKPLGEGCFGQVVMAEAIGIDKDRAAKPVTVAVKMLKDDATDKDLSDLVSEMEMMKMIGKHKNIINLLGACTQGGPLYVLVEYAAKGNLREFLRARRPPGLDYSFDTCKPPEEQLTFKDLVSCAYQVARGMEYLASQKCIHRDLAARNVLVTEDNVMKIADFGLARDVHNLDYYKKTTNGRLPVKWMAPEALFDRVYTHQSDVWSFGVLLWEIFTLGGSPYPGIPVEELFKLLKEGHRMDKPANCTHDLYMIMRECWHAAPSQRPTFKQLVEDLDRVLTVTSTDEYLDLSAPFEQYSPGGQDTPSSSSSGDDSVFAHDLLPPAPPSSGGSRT
# Procedure: (§1) The inhibitor potency of the exemplified compounds was determined in an enzyme discontinuous assay that measures peptide phosphorylation using FRET measurements to detect product formation. Inhibitors were serially diluted in DMSO and a volume of 0.2 μL was transferred to the wells of a 384-well plate. For the isoforms of FGFR (−1, −2, −3 wild-type and mutant isoforms, −4) including phosphorylated (P) and un-phosphorylated (UP) proteins, a 5 μL/well volume of enzyme diluted in assay buffer (50 mM HEPES, 10 mM MgCl2, 1 mM EGTA, 0.01% Tween-20, 5 mM DTT, pH 7.5) was added to the plate and pre-incubated with inhibitor for 5 to 15 minutes at ambient temperature. Appropriate controls (enzyme blank and enzyme with no inhibitor) were included on the plate. The reaction was initiated by the addition of a 5 μL/well volume containing both biotinylated [sequence] […] The plate was allowed to equilibrate for −10 minutes at ambient temperature before scanning on a PheraStar plate reader (BMG Labtech) instrument.
# (§2) Either GraphPad prism or XLfit was used to analyze the data. The IC50 values were derived by fitting the data to a four parameter logistic equation producing a sigmoidal dose-response curve with a variable Hill coefficient. Prism equation: Y=Bottom+(Top−Bottom)/(1+10^((LogIC50−X)*Hill slope)); XLfit equation: Y=(A+((B−A)/(1+((X/C)^D)))) where X is the logarithm of inhibitor concentration and Y is the response.
# FGFR1 (UP) = FGFR1 (UP) (Homo sapiens (Human), UniProt P11362); experiment: FGFR Enzymatic Assay, FGFR1 un-phosphorylated
# Chain of FGFR1 (UP) (P11362 22-822): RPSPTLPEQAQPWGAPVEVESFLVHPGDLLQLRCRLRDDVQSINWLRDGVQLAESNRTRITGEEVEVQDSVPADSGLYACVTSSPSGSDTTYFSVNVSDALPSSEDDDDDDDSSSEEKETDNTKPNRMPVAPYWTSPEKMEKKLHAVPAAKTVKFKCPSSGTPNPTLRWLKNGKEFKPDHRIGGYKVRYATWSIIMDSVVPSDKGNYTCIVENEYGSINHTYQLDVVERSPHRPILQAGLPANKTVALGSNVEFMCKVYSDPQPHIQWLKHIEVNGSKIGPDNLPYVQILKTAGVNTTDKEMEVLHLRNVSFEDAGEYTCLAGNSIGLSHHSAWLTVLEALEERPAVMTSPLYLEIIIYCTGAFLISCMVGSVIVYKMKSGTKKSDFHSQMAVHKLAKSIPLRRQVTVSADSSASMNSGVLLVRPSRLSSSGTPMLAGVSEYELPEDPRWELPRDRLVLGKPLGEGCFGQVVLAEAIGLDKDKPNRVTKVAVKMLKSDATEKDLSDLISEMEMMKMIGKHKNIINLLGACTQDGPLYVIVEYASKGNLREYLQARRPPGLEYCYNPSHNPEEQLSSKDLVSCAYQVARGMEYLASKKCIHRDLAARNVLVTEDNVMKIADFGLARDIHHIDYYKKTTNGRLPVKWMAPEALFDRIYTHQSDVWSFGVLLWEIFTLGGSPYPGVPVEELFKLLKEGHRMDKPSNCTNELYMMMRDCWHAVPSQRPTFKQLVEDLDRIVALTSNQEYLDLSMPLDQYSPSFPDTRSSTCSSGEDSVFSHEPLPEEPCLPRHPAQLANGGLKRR
# Procedure: as §1, §2
# FGFR2 (UP) = FGFR2 (UP) (Homo sapiens (Human), UniProt P21802); experiment: FGFR Enzymatic Assay, FGFR2 un-phosphorylated
# Chain of FGFR2 (UP) (P21802 22-821): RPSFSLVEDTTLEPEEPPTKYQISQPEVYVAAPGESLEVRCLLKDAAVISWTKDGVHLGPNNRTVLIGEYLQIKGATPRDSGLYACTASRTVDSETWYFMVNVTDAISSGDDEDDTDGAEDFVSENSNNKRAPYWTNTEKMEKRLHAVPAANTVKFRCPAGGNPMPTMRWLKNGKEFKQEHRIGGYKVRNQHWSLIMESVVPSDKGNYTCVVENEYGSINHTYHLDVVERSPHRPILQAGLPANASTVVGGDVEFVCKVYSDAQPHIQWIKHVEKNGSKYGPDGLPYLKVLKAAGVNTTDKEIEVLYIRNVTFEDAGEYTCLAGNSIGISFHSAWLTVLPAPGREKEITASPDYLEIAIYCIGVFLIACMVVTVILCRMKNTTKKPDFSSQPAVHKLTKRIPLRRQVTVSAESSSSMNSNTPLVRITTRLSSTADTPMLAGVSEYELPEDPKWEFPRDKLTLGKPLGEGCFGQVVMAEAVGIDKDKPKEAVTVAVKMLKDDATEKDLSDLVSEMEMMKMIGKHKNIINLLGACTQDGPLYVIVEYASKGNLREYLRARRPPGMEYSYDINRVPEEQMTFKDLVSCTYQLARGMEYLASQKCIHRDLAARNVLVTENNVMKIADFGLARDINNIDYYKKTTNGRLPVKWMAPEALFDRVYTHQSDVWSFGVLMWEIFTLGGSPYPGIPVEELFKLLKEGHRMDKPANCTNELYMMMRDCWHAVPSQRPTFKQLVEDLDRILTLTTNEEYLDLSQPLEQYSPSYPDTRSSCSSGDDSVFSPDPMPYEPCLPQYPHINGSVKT
# Procedure: as §1, §2
# RT112 cells = experiment: Luminescent Viability Assay (LVA, FGFR3); type: cell-based; settings: Homo sapiens, RT-112, 72 h, 3 days, CellTiter-Glo
# Procedure: RT112 cells were purchased from ATCC (Manassas, Va.) and maintained in RPMI, 10% FBS (Gibco/Life Technologies). To measure the effect of test compounds on the viability of cells, the cells were plated with RPMI 10% FBS (5×10^3 cells/well/in 50 μL) into black 96-well Greiner polystyrene in the presence or absence of 50 μl of a concentration range of test compounds. After 3 days, 100 μl of CellTiter-Glo Reagent (Promega) was added. Luminescence was read with a TopCount (PerkinElmer). IC50 determination was performed by fitting the curve of percent inhibition versus the log of the inhibitor concentration using the GraphPad Prism 5.0 software.
# FGFR2 (P) = FGFR2 (P) (Homo sapiens (Human), UniProt P21802); experiment: FGFR Enzymatic Assay, FGFR2 phosphorylated; settings: read-out: FGFR2 (P) IC50; phosphorylated enzyme, ATP near or below Km
# Chain of FGFR2 (P) (P21802 22-821): as above
# Procedure: as §1, §2
# [1] = read-out: ALK2 3 μM IC50, 3 uM ATP
# [2] = read-out: ALK2 100 μM IC50, 100 uM ATP
# [3] = read-out: ALK2 1 mM IC50, 1 mM ATP
# [4] = read-out: FGFR1 (UP) IC50, un-phosphorylated enzyme, ATP near or below Km
# [5] = read-out: FGFR3 (UP) IC50, un-phosphorylated enzyme, ATP near or below Km
# Chain of ALK2 (aa 147-end) (Q04771 147-509): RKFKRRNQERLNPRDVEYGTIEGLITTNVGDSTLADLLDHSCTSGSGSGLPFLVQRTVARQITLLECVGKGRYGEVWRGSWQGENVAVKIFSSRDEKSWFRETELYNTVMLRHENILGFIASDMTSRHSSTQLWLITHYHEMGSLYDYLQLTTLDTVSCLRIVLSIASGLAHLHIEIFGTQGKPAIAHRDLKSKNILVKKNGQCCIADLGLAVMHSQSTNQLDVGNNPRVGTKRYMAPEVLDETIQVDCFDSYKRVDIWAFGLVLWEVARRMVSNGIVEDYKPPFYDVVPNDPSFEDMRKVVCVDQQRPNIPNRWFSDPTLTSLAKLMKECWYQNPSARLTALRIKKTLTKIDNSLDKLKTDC
Structure (SMILES),"IC50 (ALK2 (aa 147-end); ALK2 1 mM IC50, 1 mM ATP)",IC50 (ALK2 (aa 147-end); [1]),IC50 (ALK2 (aa 147-end); [2]),IC50 (ALK2),IC50 (FGFR3 (UP)),IC50 (FGFR1 (UP)),IC50 (FGFR2 (UP)),IC50 (ALK2 (aa 147-end); [3]),IC50 (FGFR1 (UP); [4]),IC50 (FGFR3 (UP); [5]),"IC50 (FGFR2 (UP); read-out: FGFR2 (UP) IC50, un-phosphorylated enzyme, ATP near or below Km)","IC50 (ALK2 (aa 147-end); ALK2 3 μM IC50, 3 uM ATP)","IC50 (ALK2 (aa 147-end); ALK2 100 μM IC50, 100 uM ATP)",IC50 (RT112 cells),IC50 (FGFR2 (P))
"C[C@@H]1CN(c2ccc(-c3n[nH]c4cnc(N5C6CCC5CC6)nc34)cn2)CCN1 [Example 3, 5-(7-Azabicyclo[2.2.1]heptan-7-yl)-3-(6-((R)-3-methylpiperazin-1-yl)pyridin-3-yl)-1H-pyrazolo[4,3-d]pyrimidine]",100 to 500 nM,< 100 nM,< 100 nM,100 to 500 nM,100 to 500 nM,500 to 2000 nM,100 to 500 nM,,,,,,,,
"COCC(=O)N1C[C@@H](C)N(c2ncc3[nH]nc(-c4ccc(N5CCN[C@H](C)C5)nc4)c3n2)[C@@H](C)C1 [Example 6, 1-((3R,5S)-3,5-Dimethyl-4-(3-(6-((R)-3-methylpiperazin-1-yl)pyridin-3-yl)-1H-pyrazolo[4,3-d]pyrimidin-5-yl)piperazin-1-yl)-2-methoxyethan-1-one]",,< 100 nM,< 100 nM,100 to 500 nM,500 to 2000 nM,,500 to 2000 nM,< 100 nM,> 2000 nM,,,,,,
"C[C@@H]1CN(c2ccc(-c3n[nH]c4cnc(N5[C@H](C)CN(C(=O)N6CCC(F)C6)C[C@@H]5C)nc34)cn2)CCN1 (stereo partly drawn) [Example 10, ((3R,5S)-3,5-Dimethyl-4-(3-(6-((R)-3-methylpiperazin-1-yl)pyridin-3-yl)-1H-pyrazolo[4,3-d]pyrimidin-5-yl)piperazin-1-yl)(3-fluoropyrrolidin-1-yl)methanone]",,< 100 nM,< 100 nM,< 100 nM,500 to 2000 nM,500 to 2000 nM,500 to 2000 nM,< 100 nM,,,,,,,
"CCOC(=O)N1C[C@@H](C)N(c2ncc3[nH]nc(-c4ccc(N5CCN[C@H](C)C5)nc4)c3n2)[C@@H](C)C1 [Example 11, Ethyl (3R,5S)-3,5-dimethyl-4-(3-(6-((R)-3-methylpiperazin-1-yl)pyridin-3-yl)-1H-pyrazolo[4,3-d]pyrimidin-5-yl)piperazine-1-carboxylate]",,< 100 nM,< 100 nM,100 to 500 nM,500 to 2000 nM,500 to 2000 nM,500 to 2000 nM,< 100 nM,,,,,,,
"COC(=O)N1C[C@@H](C)N(c2ncc3[nH]nc(-c4ccc(N5CCN[C@H](C)C5)nc4)c3n2)[C@@H](C)C1 [Example 17, Methyl (3R,5S)-3,5-dimethyl-4-(3-(6-((R)-3-methylpiperazin-1-yl)pyridin-3-yl)-1H-pyrazolo[4,3-d]pyrimidin-5-yl)piperazine-1-carboxylate]",,< 100 nM,< 100 nM,< 100 nM,,,,< 100 nM,,< 100 nM,< 100 nM,,,,
"CNC(=O)c1ccc(-c2n[nH]c3cnc(N4[C@H](C)CN(C(=O)OC)C[C@@H]4C)nc23)cc1 [Example 26, Methyl (3R,5S)-3,5-dimethyl-4-(3-(4-(methylcarbamoyl)phenyl)-1H-pyrazolo[4,3-d]pyrimidin-5-yl)piperazine-1-carboxylate]",,< 100 nM,,,100 to 500 nM,500 to 2000 nM,100 to 500 nM,> 2000 nM,,,,,,,
"COC(=O)N1C[C@@H](C)N(c2ncc3[nH]nc(-c4ccc(C5CCN(CCO)C5)cc4)c3n2)[C@@H](C)C1 (stereo partly drawn) [Example 28, Methyl (3R,5S)-4-(3-(4-(1-(2-hydroxyethyl)pyrrolidin-3-yl)phenyl)-1H-pyrazolo[4,3-d]pyrimidin-5-yl)-3,5-dimethylpiperazine-1-carboxylate]",,< 100 nM,< 100 nM,< 100 nM,,500 to 2000 nM,100 to 500 nM,,,,,,,,
"COC(=O)N1C[C@@H](C)N(c2ncc3[nH]nc(-c4ccc(N5CCN(C(C)CO)CC5)cc4)c3n2)[C@@H](C)C1 (stereo partly drawn) [Example 29, Methyl (3R,5S)-4-(3-(4-(4-(1-hydroxypropan-2-yl)piperazin-1-yl)phenyl)-1H-pyrazolo[4,3-d]pyrimidin-5-yl)-3,5-dimethylpiperazine-1-carboxylate]",,< 100 nM,< 100 nM,< 100 nM,,,500 to 2000 nM,,,,,,,,
"COC(=O)N1C[C@@H](C)N(c2ncc3[nH]nc(-c4ccc(N5CCN(C6CCOCC6)CC5)cc4)c3n2)[C@@H](C)C1 [Example 30, Methyl (3R,5S)-3,5-dimethyl-4-(3-(4-(4-(tetrahydro-2H-pyran-4-yl)piperazin-1-yl)phenyl)-1H-pyrazolo[4,3-d]pyrimidin-5-yl)piperazine-1-carboxylate]",,< 100 nM,< 100 nM,100 to 500 nM,,,100 to 500 nM,,,,,,,,
"COC(=O)N1C[C@@H](C)N(c2ncc3[nH]nc(-c4ccc(N5CCN(C(C)(C)C(=O)O)CC5)cc4)c3n2)[C@@H](C)C1 [Example 31, 2-(4-(4-(5-((2R,6S)-4-(Methoxycarbonyl)-2,6-dimethylpiperazin-1-yl)-1H-pyrazolo[4,3-d]pyrimidin-3-yl)phenyl)piperazin-1-yl)-2-methylpropanoic acid]",,< 100 nM,< 100 nM,< 100 nM,,,100 to 500 nM,,,,,,,,
"COC(=O)N1C[C@@H](C)N(c2ncc3[nH]nc(-c4ccc(N5CCC(O)CC5)cc4)c3n2)[C@@H](C)C1 [Example 34, Methyl (3R,5S)-4-(3-(4-(4-hydroxypiperidin-1-yl)phenyl)-1H-pyrazolo[4,3-d]pyrimidin-5-yl)-3,5-dimethylpiperazine-1-carboxylate]",,,,500 to 2000 nM,,,500 to 2000 nM,> 2000 nM,> 2000 nM,,,100 to 500 nM,,,
"CC(C)C(=O)N1CCC(n2cc(-c3n[nH]c4cnc(N5C6CCC5C(=O)N(C)C6)nc34)cn2)CC1 (stereo not shown) [Example 57, 8-(3-(1-(1-Isobutyrylpiperidin-4-yl)-1H-pyrazol-4-yl)-1H-pyrazolo[4,3-d]pyrimidin-5-yl)-3-methyl-3,8-diazabicyclo[3.2.1]octan-2-one]",,,,,,100 to 500 nM,,,,< 100 nM,,500 to 2000 nM,500 to 2000 nM,500 to 2000 nM,< 100 nM
"CN1CC2CCC(C1=O)N2c1ncc2[nH]nc(-c3cnn(Cc4ccncc4)c3)c2n1 (stereo not shown) [Example 59, 3-Methyl-8-(3-(1-(pyridin-4-ylmethyl)-1H-pyrazol-4-yl)-1H-pyrazolo[4,3-d]pyrimidin-5-yl)-3,8-diazabicyclo[3.2.1]octan-2-one]",,,,,,100 to 500 nM,,,,< 100 nM,,500 to 2000 nM,500 to 2000 nM,500 to 2000 nM,< 100 nM
"CN1CCN(c2ccc(-c3n[nH]c4cnc(N5C6CCC5C(=O)N(C)C6)nc34)cn2)CC1 (stereo not shown) [Example 60, 3-Methyl-8-(3-(6-(4-methylpiperazin-1-yl)pyridin-3-yl)-1H-pyrazolo[4,3-d]pyrimidin-5-yl)-3,8-diazabicyclo[3.2.1]octan-2-one]",,< 100 nM,,,,,,,< 100 nM,< 100 nM,,,500 to 2000 nM,100 to 500 nM,< 100 nM
"CN1CC2CCC(C1=O)N2c1ncc2[nH]nc(-c3cnn(-c4ccc5nccn5c4)c3)c2n1 (stereo not shown) [Example 75, 8-(3-(1-(Imidazo[1,2-a]pyridin-6-yl)-1H-pyrazol-4-yl)-1H-pyrazolo[4,3-d]pyrimidin-5-yl)-3-methyl-3,8-diazabicyclo[3.2.1]octan-2-one]",,,,,,,,,< 100 nM,< 100 nM,,500 to 2000 nM,500 to 2000 nM,500 to 2000 nM,< 100 nM
